The text below walks through data of paper doi:10.1101/819920v2 (biorxiv, 2020).

This test has as its target YegI (Escherichia coli, UniProt Q8X7J8). In words: biochemical.

Molecules are shown by their SMILES.

Sequence of YegI (Q8X7J8 whole entry): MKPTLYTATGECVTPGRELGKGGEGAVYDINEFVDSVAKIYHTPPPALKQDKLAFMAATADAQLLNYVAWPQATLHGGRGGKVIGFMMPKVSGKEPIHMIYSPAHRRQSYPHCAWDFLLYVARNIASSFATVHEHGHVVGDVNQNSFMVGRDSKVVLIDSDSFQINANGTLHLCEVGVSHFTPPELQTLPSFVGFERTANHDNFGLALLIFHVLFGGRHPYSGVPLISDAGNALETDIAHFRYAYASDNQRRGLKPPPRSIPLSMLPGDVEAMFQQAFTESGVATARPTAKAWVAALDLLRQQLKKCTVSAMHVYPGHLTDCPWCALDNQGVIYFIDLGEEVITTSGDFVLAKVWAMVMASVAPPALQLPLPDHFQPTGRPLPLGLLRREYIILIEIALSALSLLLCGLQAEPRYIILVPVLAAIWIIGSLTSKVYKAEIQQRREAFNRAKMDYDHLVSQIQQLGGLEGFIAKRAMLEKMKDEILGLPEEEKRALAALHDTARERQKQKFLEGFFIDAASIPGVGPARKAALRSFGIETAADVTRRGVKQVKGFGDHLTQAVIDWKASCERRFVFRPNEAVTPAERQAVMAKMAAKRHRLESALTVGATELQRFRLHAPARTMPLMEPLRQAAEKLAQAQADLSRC

In the case of `CN[C@@H]1C[C@H]2O[C@@](C)([C@@H]1OC)n1c3ccccc3c3c4c(c5c6ccccc6n2c5c31)C(=O)NC4` [staurosporine], the IC50 is roughly 50 µM.
